From patent US6900008B2, “Methods and formulations for minimizing spasticity in blood vessel grafts” (Emory University, priority 2001, dated 2005) come the findings set out here.

The subject of test [1] is canine radial artery segments. As to the kind of experiment: Phenylephrine-induced contraction of pretreated canine radial artery segments in organ chambers. Format: cell-based. The conditions noted are these: for Constriction response to the maximum concentration of phenylephrine, % of KCl response: KCl 30 mmol/L. The protocol:
(§1) Canine radial arteries were harvested without pedicles, and incubated in control buffer or solutions of papavarine (10^−6M), 2, 3-butadione monoxime (BDM, 10^−6M) (a putative protein phosphatase) or phenoxybenzamine (10^−6M) for a period of 30 minutes. The arteries were then washed with buffer and stored in a drug-free culture medium for a set time period (2 hours, 24 hours or 48 hours per example). After storage, vasopressors norepinephrine or phenylephrine were added at incremental concentrations ranging from 0.7 to 3.5 μmol/L (norepinephrine) or 0.300 to 1.5 μmol/L (phenylephrine) to all arterial samples to attempt to induce spasticity or vasoconstriction. The degree of vasoconstriction was then quantified in organ chambers. The responses of the arterial samples to norepinephrine or phenylephrine were compared with spasticity or constriction with receptor-independent potassium chloride (KCl) at 30 mmol/L.
(§2) The maximum responses of untreated and treated radial artery segments of KCl, phenylephrine and norepinephrine (in grams of tension) are summarized in Table 1. The constriction (contraction) responses to phenylephrine and norepinephrine given below are represented as a percentage of the responses to KCl, i.e. 100×(grams tension norepinephrine/grams tension KCl).

Test [2] deals with canine radial artery segments. As to the kind of experiment: Norepinephrine-induced contraction of pretreated canine radial artery segments in organ chambers. The conditions noted are these: for Maximal constriction response to norepinephrine, % of KCl response: KCl 30 mmol/L. The test is classed as cell-based. The protocol:
as §1, §2

The test system of test [3] is human radial artery segments. Description: Phenylephrine-induced vasoconstriction of human radial artery rings in organ chambers. Format: cell-based. The conditions noted are these: 15 μM PE. The protocol: Radial artery (RA) segments were obtained from patients having elective coronary artery bypass grafting with or without cardiopulmonary bypass at the Crawford Long Hospital of Emory University. A modified Allen's test was performed to assess the adequacy of collateral circulation to the hand preoperatively. The RA was harvested with its pedicle containing the venae comitantes, perivascular fat and areolar tissue (no fasciotomy) using a “no-touch” technique. Branches of the RA were ligated with vascular clips. A subset of the radial artery grafts had the musculofascial tissue incised (with fasciotomy) to expose the aerolar tissue adjacent to the graft. The RA was then placed in a solution containing 20 mL heparinized blood, 1.6 mL 1% lidocaine and 0.4 mL papaverine (30 mg/mL) for approximately 30 minutes. […] Prior to its placement in the aortocoronary position, a small segment of the RA was obtained and immediately placed in Krebs-Henseleit (K-H) buffer (118 mmol/L NaCl, 4.7 mmol/L KCl, 1.2 mmol/L KH2PO4, 1.2 mmol/L MgSO4, 2.5 mmol/L CaCl2, 12.5 mmol/L NaHCO3, and 10 mmol/L glucose) at 4° C., pH 7.4 and transported to the Cardiothoracic Research Laboratory.
The harvested radial artery segment with or without fasciotomy was placed into K-H buffer pH 7.4 with either 10, 100 or 1000 μM PBZ or vehicle. The radial artery was flushed intraluminally twice with this solution, once at the beginning and once at the end of a 30 minute incubation period, which approximates the time between RA harvest and placement in the aortocoronary position. In addition, Control RA segments were obtained prior to intraoperative pretreatment of the conduit with the papaverine/lidocaine solution and received no other treatment. The segments were prepared for placement in organ chambers by carefully skeletonizing them in cold K-H buffer and cutting them into rings three to five mm in length. The rings were then mounted on stainless steel hooks, connected to FT-03 force displacement transducers, and placed into Radnoti organ chambers (Radnoti Glass, Monrovia, Calif. containing 7 mL of oxygenated (95% O2, 5% CO2) K-H buffer at 37° C. and pH 7.4. Indomethacin (10 μmol/L) was added to the buffer to block responses to endogenous prostanoids. The rings were stabilized for one hour with frequent buffer changes and set to a predetermined tension that allowed 75% of maximal contraction to 30 mM potassium chloride (KCl).
The rings were then incubated with increasing concentrations of PE (0.5 to 15 μM) or NE (0.5 to 15 μM). After the highest concentration of alpha adrenergic agent was achieved, 30 mM KCl was added to the bath to quantify the maximal nonreceptor-mediated constriction. In randomly selected vessels, the integrity of the radial artery endothelium was also tested for its receptor-dependent relaxation response to incremental concentrations of acetylcholine (ACh), a stimulator of nitric oxide synthase. The rings were precontracted with the thromboxane A2 mimetic U46619 (1.4 nmol/L), and then exposed to increasing concentrations of Ach (1 nmol/L to 11.7 μmol/L) in the presence of 10 μM indomethacin.
The changes in isometric force were quantified using an analog-to-digital converter sampling at 2 Hz. The responses were analyzed using a Windows-based videographics program ([…], Wake Forest University, Winston-Salem, N.C.). The force of contraction elicited by the exposure to increasing concentrations of PE and NE was expressed as a percentage of the maximal contraction generated by KCl in each ring. The degree of relaxation after exposure to ACh was expressed as the percent tension reduction from the maximal force of contraction obtained from U46619.
If a significant difference between groups was assigned by ANOVA, a post-hoc Student-Newman-Keuls test was applied to locate the source of differences. A p value of <0.05 was considered to be statistically significant. All data are reported as means±the standard error of the mean.

Test [4] relates to human radial artery endothelium. Description: Endothelial function: relaxation to acetylcholine of U46619-precontracted human radial artery rings. Format: cell-based. The conditions noted are these: 12 μM ACh; without fasciotomy; PBZ at 1000 μM where used. The protocol: (§3) Radial artery (RA) segments were obtained from patients having elective coronary artery bypass grafting with or without cardiopulmonary bypass at the Crawford Long Hospital of Emory University. A modified Allen's test was performed to assess the adequacy of collateral circulation to the hand preoperatively. The RA was harvested with its pedicle containing the venae comitantes, perivascular fat and areolar tissue (no fasciotomy) using a “no-touch” technique. Branches of the RA were ligated with vascular clips. A subset of the radial artery grafts had the musculofascial tissue incised (with fasciotomy) to expose the aerolar tissue adjacent to the graft. […]
(§4) The rings were then incubated with increasing concentrations of PE (0.5 to 15 μM) or NE (0.5 to 15 μM). After the highest concentration of alpha adrenergic agent was achieved, 30 mM KCl was added to the bath to quantify the maximal nonreceptor-mediated constriction. […]
(§5) The changes in isometric force were quantified using an analog-to-digital converter sampling at 2 Hz. The responses were analyzed using a Windows-based videographics program ([…], Wake Forest University, Winston-Salem, N.C.). The force of contraction elicited by the exposure to increasing concentrations of PE and NE was expressed as a percentage of the maximal contraction generated by KCl in each ring. […]

Test [5] relates to human radial artery segments. As to the kind of experiment: Norepinephrine-induced vasoconstriction of human radial artery rings in organ chambers. Format: cell-based. The protocol:
as §3, §4, §5

In test [6] the test system is radial artery segments (endothelium). As to the kind of experiment: Endothelial relaxation response to acetylcholine of stored radial artery segments. The test is classed as cell-based, canine. From the text: The endothelium contributes to the overall vascular tone by tonic release of autacoids such as nitric oxide among other vasoactive substances. In addition, any attenuation of function related to autacoid release by phenoxybenzamine or its diluents would be undesirable.

The mark [7] stands for this setting: 2 Hours drug-free storage after 30 min incubation with 10^−6M drug.
The mark [8] stands for this setting: 24 Hours drug-free storage after 30 min incubation with 10^−6M drug.
Where [9] appears, read: 48 Hours drug-free storage after 30 min incubation with 10^−6M drug.
Setting [10] is: 48 hours after 30 min pretreatment with 10^−6M drug.
[11] abbreviates: 2 hours after 30 min pretreatment with 10^−6M drug.
[12] abbreviates: 48 hours of storage, did not reach significance.
The mark [13] stands for this setting: after washing (2 hours) or 24 or 48 hours after the 30-minute pretreatment, 10^−6M.
The mark [14] stands for this setting: 24 hours after 30 min pretreatment with 10^−6M drug.

Marks after values point to notes of the source that are not given here.

Turning to `CC(=O)C(C)=NO` [BDM, 2,3-butadione monoxime], the “Contraction response to phenylephrine from resting force (maximum response)” value (“Contraction response to phenylephrine” for short) in test [1] (setting [7]) was 8.35 ± 0.79 grams of tension; in test [1] (setting [8]), 9.43 ± 0.64 grams of tension; in test [1] (setting [9]), 7.01 ± 0.80 grams of tension. Also, the “Constriction response to the maximum concentration of phenylephrine, % of KCl response” value in test [1] (setting [10]) is listed as “approximately 39%”. In addition, the “Constrictor responses to phenylephrine compared with control segments (in words)” value in test [1] (at 2 hours and 24 hours) is given as “very similar”. Further, the “Contraction response to norepinephrine from resting force (maximum response)” value (from here on “Contraction response to norepinephrine”) in test [2] (setting [7]) is on record as 5.69 ± 0.29 grams of tension; in test [2] (setting [8]), 4.22 ± 0.75 grams of tension; in test [2] (setting [9]), 7.01 ± 0.85 grams of tension. For the same molecule, in test [2] (setting [11]), the “Maximal constriction response to norepinephrine, % of KCl response” value is “approximately 75%”. Besides, the “Constriction responses to norepinephrine compared with control vessels (in words)” value in test [2] (after 24 hours and 48 hours of drug-free storage) is given as “similar”.
`COc1ccc(Cc2nccc3cc(OC)c(OC)cc23)cc1OC` [papaverine]: the “Contraction response to phenylephrine” value in test [1] (setting [7]) is listed as 14.29 ± 0.76 grams of tension; in test [1] (setting [8]), 12.33 ± 0.76 grams of tension; in test [1] (setting [9]), 10.46 ± 0.52 grams of tension. Moreover, the “Maximal constrictor response to phenylephrine compared with control vessels (in words)” value in test [1] (setting [12]) is reported as “paradoxical trend toward increased maximal constrictor response”. Moreover, in test [1] (setting [13]), the “Effect on phenylephrine-induced contraction (in words)” value is reported as “no inhibitory effect”. For the same molecule, the “Contraction response to norepinephrine” value is given as 7.65 ± 0.72 grams of tension in test [2] (setting [7]), 10.37 ± 0.26 grams of tension in test [2] (setting [8]) and 12.55 ± 1.22 grams of tension in test [2] (setting [9]). In addition, the “Maximal constrictor response to norepinephrine compared with control vessels (in words)” value in test [2] (setting [12]) is “paradoxical trend toward increased maximal constrictor response”. In addition, the “Effect on norepinephrine-induced contraction (in words)” value in test [2] (setting [13]) was “no inhibitory effect”.
As for `CC(COc1ccccc1)N(CCCl)Cc1ccccc1` (centres unmarked) [phenoxybenzamine], the “Contraction response to phenylephrine” value was 2.03 ± 0.13 ^b grams of tension in test [1] (setting [7]), 0.20 ± 0.01^b grams of tension in test [1] (setting [8]) and −1.08 ± 0.19^b grams of tension in test [1] (setting [9]). The results for the “Constriction response to the maximum concentration of phenylephrine, % of KCl response” value in test [1] (setting [11]), in test [1] (setting [14]) and in test [1] (setting [10]) were 19%±8%, 1%±4% and −12%±4%, respectively. Besides, the “Contraction response to norepinephrine” value in test [2] (setting [7]) is given as 0.80 ± 0.05^b grams of tension; in test [2] (setting [8]) it was −0.58 ± 0.05^b grams of tension; in test [2] (setting [9]), −1.62 ± 0.36^b grams of tension. In addition, the figures for the “Maximal constriction response to norepinephrine, % of KCl response” value in test [2] (setting [11]), in test [2] (setting [14]) and in test [2] (setting [10]) were −7%±1%, −5%±5% and −20%±5%, respectively. The “Attenuation of vasoconstriction response to PE, % of control” value is reported as 63% in test [3] (10 μM PBZ), 80% in test [3] (100 μM PBZ) and 116% in test [3] (1000 μM PBZ). For the same molecule, the entries for the “Contraction at the highest concentration of PE, % of the KCl response” value in test [3] (10 μM PBZ 30 min in addition to papaverine/lidocaine), in test [3] (100 μM PBZ 30 min in addition to papaverine/lidocaine) and in test [3] (1000 μM PBZ 30 min in addition to papaverine/lidocaine) were 16.5±4.3%, 8.7±5.1% and −7.2±4.4%, respectively. The “Relaxation response to ACh (percent tension reduction from U46619 contraction)” value in test [4] worked out at 81.0±11.8%. The “Effect on constriction to NE (in words)” value in test [5] (PBZ at 10 μM) was “inhibited constriction to concentrations of NE greater than 7 μM”. In addition, the “Effect on constrictor responses to NE (in words)” value in test [5] (PBZ at 1000 μM, across all concentrations of NE) is “completely inhibited”. The “Maximum relaxation response to the highest concentration of acetylcholine” value in test [6] (after 24 hours of storage) is recorded as 57%±6%; in test [6] (after 48 hours of storage), 30%±5%; in test [6] (at 2 hours of storage) it was 61%±5%.
